Measurements reported in patent US20230085307A1, “PYRIDAZINONE COMPOUND AND HERBICIDE” (NISSAN CHEMICAL CORPORATION, priority 2019, published 2023).

Key:
barnyard grass [1] = test: Test Example 3: herbicidal effect by foliage application, Wagner pot (Table 18, symbol H); format: in vivo, barnyard grass (Echinochloa crus-galli); conditions: 320 g/ha
Procedure, shortened: (§1)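 Plants were sown in alluvial soil held under 0.1–0.5 cm standing water and grown 14 days in a greenhouse at 25–30 °C. An emulsifiable formulation, water-diluted to the set dose, was then sprayed onto the foliage, and effects were scored three weeks later using previously defined criteria.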

Chinese sprangletop = test: Test Example 3: herbicidal effect by foliage application, Wagner pot (Table 18, symbol D); format: in vivo, chinese sprangletop (Leptochloa chinensis); conditions: 320 g/ha
Procedure, shortened: as §1

rice flat sedge = test: Test Example 3: herbicidal effect by foliage application, Wagner pot (Table 18, symbol E); format: in vivo, rice flat sedge (Cyperus iria); conditions: 320 g/ha
Procedure, shortened: as §1

southern crabgrass = test: Test Example 5: herbicidal effect by foliage application, plastic box (Table 20, symbol F); format: in vivo, southern crabgrass (Digitaria ciliaris); conditions: amount of applied herbicide 320 g/ha; foliage application after 14-day growth; evaluated three weeks after application
Procedure, shortened: (§2)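 Sow seeds spot-wise in sterilized diluvial soil; cover with ~1.5 cm soil. Grow 14 days in greenhouse, 25° C. to 30° C. Spray foliage with emulsion diluted to predetermined amount. Rate effect after 3 weeks.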

green foxtail = test: Test Example 5: herbicidal effect by foliage application, plastic box (Table 20, symbol G); format: in vivo, green foxtail (Setaria viridis); conditions: amount of applied herbicide 320 g/ha; foliage application after 14-day growth; evaluated three weeks after application
Procedure, shortened: as §2

barnyard grass [2] = test: Test Example 5: herbicidal effect by foliage application, plastic box (Table 20, symbol H); format: in vivo, barnyard grass (Echinochloa crus-galli); conditions: amount of applied herbicide 320 g/ha; foliage application after 14-day growth; evaluated three weeks after application
Procedure, shortened: as §2

wild oat = test: Test Example 5: herbicidal effect by foliage application, plastic box (Table 20, symbol I); format: in vivo, wild oat (Avena fatua); conditions: amount of applied herbicide 320 g/ha; foliage application after 14-day growth; evaluated three weeks after application
Procedure, shortened: as §2

blackgrass = test: Test Example 5: herbicidal effect by foliage application, plastic box (Table 20, symbol J); format: in vivo, blackgrass (Alopecurus myosuroides); conditions: amount of applied herbicide 320 g/ha; foliage application after 14-day growth; evaluated three weeks after application
Procedure, shortened: as §2

Italian ryegrass = test: Test Example 5: herbicidal effect by foliage application, plastic box (Table 20, symbol K); format: in vivo, Italian ryegrass (Lolium multiflorum); conditions: amount of applied herbicide 320 g/ha; foliage application after 14-day growth; evaluated three weeks after application
Procedure, shortened: as §2

windgrass = test: Test Example 5: herbicidal effect by foliage application, plastic box (Table 20, symbol L); format: in vivo, windgrass (Apera spica-venti); conditions: amount of applied herbicide 320 g/ha; foliage application after 14-day growth; evaluated three weeks after application
Procedure, shortened: as §2

velvetleaf = test: Test Example 5: herbicidal effect by foliage application, plastic box (Table 20, symbol M); format: in vivo, velvetleaf (Abutilon theophrasti); conditions: amount of applied herbicide 320 g/ha; foliage application after 14-day growth; evaluated three weeks after application
Procedure, shortened: as §2

redroot pigweed = test: Test Example 5: herbicidal effect by foliage application, plastic box (Table 20, symbol N); format: in vivo, redroot pigweed (Amaranthus retroflexus); conditions: amount of applied herbicide 320 g/ha; foliage application after 14-day growth; evaluated three weeks after application
Procedure, shortened: as §2

lambsquarters = test: Test Example 5: herbicidal effect by foliage application, plastic box (Table 20, symbol O); format: in vivo, lambsquarters (Chenopodium album); conditions: amount of applied herbicide 320 g/ha; foliage application after 14-day growth; evaluated three weeks after application
Procedure, shortened: as §2

chickweed = test: Test Example 5: herbicidal effect by foliage application, plastic box (Table 20, symbol P); format: in vivo, common chickweed (Stellaria media); conditions: amount of applied herbicide 320 g/ha; foliage application after 14-day growth; evaluated three weeks after application
Procedure, shortened: as §2

persian speedwell = test: Test Example 5: herbicidal effect by foliage application, plastic box (Table 20, symbol R); format: in vivo, Persian speedwell (Veronica persica); conditions: amount of applied herbicide 320 g/ha; foliage application after 14-day growth; evaluated three weeks after application
Procedure, shortened: as §2

With `CCSc1ccccc1-c1sc2c(Cl)cccc2c1-c1c(O)c(C)nn(C)c1=O` [4-090] the “herbicidal effect on barnyard grass (H)” value (barnyard grass [1]) was 5 (Herbicidal rate of 90% or more (almost completely withered)), the “herbicidal effect on Chinese sprangletop (D)” value (from here on “herbicidal effect … (D)”) (Chinese sprangletop) was 3 (Herbicidal rate of 40% or more and less than 70%) and the “herbicidal effect on rice flat sedge (E)” value (rice flat sedge) was 2 (Herbicidal rate of 20% or more and less than 40%). For the same compound, the “Herbicidal effect by foliage application, F: southern crabgrass” value (from here on “Herbicidal effect … southern crabgrass”) (southern crabgrass) was 4 (Herbicidal rate of 70% or more and less than 90%), the “Herbicidal effect by foliage application, G: green foxtail” value (“Herbicidal effect … green foxtail” for short) (green foxtail) was 3 (Herbicidal rate of 40% or more and less than 70%) and the “Herbicidal effect by foliage application, H: barnyard grass” value (“Herbicidal effect … H: barnyard grass” below) (barnyard grass [2]) was 3 (Herbicidal rate of 40% or more and less than 70%). For the same compound, the “Herbicidal effect by foliage application, I: wild oat” value (“Herbicidal effect … wild oat” for short) (wild oat) was 0 (Herbicidal rate of 5% or less (almost no effect)), the “Herbicidal effect by foliage application, J: blackgrass” value (shortened to “Herbicidal effect … blackgrass”) (blackgrass) was 0 (Herbicidal rate of 5% or less (almost no effect)) and the “Herbicidal effect by foliage application, K: Italian ryegrass” value (from here on “Herbicidal effect … Italian ryegrass”) (Italian ryegrass) was 0 (Herbicidal rate of 5% or less (almost no effect)). For the same compound, the “Herbicidal effect by foliage application, L: windgrass” value (shortened to “Herbicidal effect … windgrass”) (windgrass) was 0 (Herbicidal rate of 5% or less (almost no effect)), the “Herbicidal effect by foliage application, M: velvetleaf” value (“Herbicidal effect … velvetleaf” for short) (velvetleaf) was 0 (Herbicidal rate of 5% or less (almost no effect)) and the “Herbicidal effect by foliage application, N: redroot pigweed” value (“Herbicidal effect … redroot pigweed” for short) (redroot pigweed) was 3 (Herbicidal rate of 40% or more and less than 70%). The “Herbicidal effect by foliage application, O: lambsquarters” value (from here on “Herbicidal effect … lambsquarters”) (lambsquarters) was 0 (Herbicidal rate of 5% or less (almost no effect)), the “Herbicidal effect by foliage application, P: chickweed” value (“Herbicidal effect … P: chickweed” below) (chickweed) was 0 (Herbicidal rate of 5% or less (almost no effect)) and the “Herbicidal effect by foliage application, R: persian speedwell” value (“Herbicidal effect … persian speedwell” below) (persian speedwell) was 1 (Herbicidal rate of 5% or more and less than 20%).
In the case of `CCCC(=O)Oc1c(C)nn(C)c(=O)c1-c1c(-c2cccc(SCC)c2)sc2c(Cl)cccc12` [4-093], the “herbicidal effect on barnyard grass (H)” value (barnyard grass [1]) is reported as 5 (Herbicidal rate of 90% or more (almost completely withered)), the “herbicidal effect … (D)” value (Chinese sprangletop) is reported as 4 (Herbicidal rate of 70% or more and less than 90%) and the “herbicidal effect on rice flat sedge (E)” value (rice flat sedge) is reported as 4 (Herbicidal rate of 70% or more and less than 90%). For the same compound, the “Herbicidal effect … southern crabgrass” value (southern crabgrass) was 0 (Herbicidal rate of 5% or less (almost no effect)), the “Herbicidal effect … green foxtail” value (green foxtail) was 2 (Herbicidal rate of 20% or more and less than 40%) and the “Herbicidal effect … H: barnyard grass” value (barnyard grass [2]) was 0 (Herbicidal rate of 5% or less (almost no effect)). For the same compound, the “Herbicidal effect … wild oat” value (wild oat) was 1 (Herbicidal rate of 5% or more and less than 20%), the “Herbicidal effect … blackgrass” value (blackgrass) was 0 (Herbicidal rate of 5% or less (almost no effect)) and the “Herbicidal effect … Italian ryegrass” value (Italian ryegrass) was 0 (Herbicidal rate of 5% or less (almost no effect)). For the same compound, the “Herbicidal effect … windgrass” value (windgrass) was 0 (Herbicidal rate of 5% or less (almost no effect)), the “Herbicidal effect … velvetleaf” value (velvetleaf) was 3 (Herbicidal rate of 40% or more and less than 70%) and the “Herbicidal effect … redroot pigweed” value (redroot pigweed) was 3 (Herbicidal rate of 40% or more and less than 70%). For the same compound, the “Herbicidal effect … lambsquarters” value (lambsquarters) was 1 (Herbicidal rate of 5% or more and less than 20%), the “Herbicidal effect … P: chickweed” value (chickweed) was 1 (Herbicidal rate of 5% or more and less than 20%) and the “Herbicidal effect … persian speedwell” value (persian speedwell) was 3 (Herbicidal rate of 40% or more and less than 70%).
With `CCCC(=O)Oc1c(C)nn(C)c(=O)c1-c1c(-c2ccc(OC)cc2)sc2cc(Cl)c(Cl)cc12` [5-044] the “herbicidal effect on barnyard grass (H)” value (barnyard grass [1]) was 3 (Herbicidal rate of 40% or more and less than 70%), the “herbicidal effect … (D)” value (Chinese sprangletop) was 3 (Herbicidal rate of 40% or more and less than 70%) and the “herbicidal effect on rice flat sedge (E)” value (rice flat sedge) was 3 (Herbicidal rate of 40% or more and less than 70%). For the same compound, the “Herbicidal effect … southern crabgrass” value (southern crabgrass) was 0 (Herbicidal rate of 5% or less (almost no effect)), the “Herbicidal effect … green foxtail” value (green foxtail) was 0 (Herbicidal rate of 5% or less (almost no effect)) and the “Herbicidal effect … H: barnyard grass” value (barnyard grass [2]) was 0 (Herbicidal rate of 5% or less (almost no effect)). The “Herbicidal effect … wild oat” value (wild oat) was 0 (Herbicidal rate of 5% or less (almost no effect)), the “Herbicidal effect … blackgrass” value (blackgrass) was 0 (Herbicidal rate of 5% or less (almost no effect)) and the “Herbicidal effect … Italian ryegrass” value (Italian ryegrass) was 0 (Herbicidal rate of 5% or less (almost no effect)). For the same compound, the “Herbicidal effect … windgrass” value (windgrass) was 0 (Herbicidal rate of 5% or less (almost no effect)), the “Herbicidal effect … velvetleaf” value (velvetleaf) was 1 (Herbicidal rate of 5% or more and less than 20%) and the “Herbicidal effect … redroot pigweed” value (redroot pigweed) was 0 (Herbicidal rate of 5% or less (almost no effect)). For the same compound, the “Herbicidal effect … lambsquarters” value (lambsquarters) was 3 (Herbicidal rate of 40% or more and less than 70%), the “Herbicidal effect … P: chickweed” value (chickweed) was 5 (Herbicidal rate of 90% or more (almost completely withered)) and the “Herbicidal effect … persian speedwell” value (persian speedwell) was 4 (Herbicidal rate of 70% or more and less than 90%).
